Source: patent publication US20230339890A1, “AMINO ALCOHOL COMPOUNDS AND USES THEREOF” (Kineta, Inc., priority 2020, published 2023)

Molecular target: Recombinant human CYP51A1 (lanosterol-14a-demethylase) (Homo sapiens (Human), UniProt Q16850)
Experiment: Inhibition of CYP51A1, fluorescent substrate BOMCC
Format: biochemical
Settings: recombinant human CYP51A1 coexpressed with CYP reductase in bacterial membranes, 8-point concentration-response, read-out: CYP51 IC50
From the text: Method: Recombinant human CYP51A1 (lanosterol-14a-demethylase) enzyme was coexpressed with CYP reductase in bacterial membranes and the fluorescent substrate BOMCC (a nonnatural substrate that causes increases in fluorescence upon CYP51A1-dependent demethylation) was used to obtain 8-point dose concentration-response curves for each compound.

Chain of Recombinant human CYP51A1 (lanosterol-14a-demethylase) (Q16850 whole entry): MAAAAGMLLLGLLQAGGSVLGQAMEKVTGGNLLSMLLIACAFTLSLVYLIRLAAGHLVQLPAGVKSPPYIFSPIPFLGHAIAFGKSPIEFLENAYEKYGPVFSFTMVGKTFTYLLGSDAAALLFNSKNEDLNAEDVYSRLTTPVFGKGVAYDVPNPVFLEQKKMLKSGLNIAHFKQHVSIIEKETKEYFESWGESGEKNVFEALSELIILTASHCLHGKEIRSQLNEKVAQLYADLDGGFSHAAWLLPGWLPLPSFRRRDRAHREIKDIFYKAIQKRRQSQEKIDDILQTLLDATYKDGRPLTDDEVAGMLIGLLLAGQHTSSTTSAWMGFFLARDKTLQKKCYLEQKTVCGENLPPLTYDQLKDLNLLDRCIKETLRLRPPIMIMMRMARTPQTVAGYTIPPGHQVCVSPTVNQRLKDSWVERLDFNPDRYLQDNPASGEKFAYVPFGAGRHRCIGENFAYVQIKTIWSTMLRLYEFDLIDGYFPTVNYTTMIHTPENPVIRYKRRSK

SMILES	IC50
O=C(Cc1ccc(C(F)(F)F)nc1)N(C[C@@H](O)c1cccnc1)C1CCC1 [compound 74, N-cyclobutyl-N-[(2S)-2-hydroxy-2-(3-pyridyl)ethyl]-2-[6-(trifluoromethyl)-3-pyridyl]acetamide]	≤ 100 nM
COC(=O)N(CCc1ccc(C(F)(F)F)nc1)C[C@@H](O)c1cccnc1 [compound 75, Methyl N-[(2S)-2-hydroxy-2-(3-pyridyl)ethyl]-N-[2-[6-(trifluoromethyl)-3-pyridyl]ethyl]carba mate]	> 1000 nM
CC1(CN(C[C@@H](O)c2cccnc2)C(=O)Cc2ccc(C(F)(F)F)nc2)CC1 [compound 76, N-[(2S)-2-hydroxy-2-(3-pyridyl)ethyl]-N-[(1-methylcyclopropyl)methyl]-2-[6-(trifluoromethyl)-3-pyridyl]acetamide]	≤ 100 nM
N#Cc1ccc(CC(=O)N(C[C@@H](O)c2cccnc2)C2CCC2)cc1Cl [compound 77, 2-(3-chloro-4-cyano-phenyl)-N-cyclobutyl-N-[(2S)-2-hydroxy-2-(3-pyridyl)ethyl]acetamide]	≤ 100 nM
O=C(Cc1ccc(C(F)(F)F)nc1)N(C[C@@H](O)c1cccnc1)C1COC1 [compound 78, N-[(2S)-2-hydroxy-2-(3-pyridyl)ethyl]-N-(oxetan-3-yl)-2-[6-(trifluoromethyl)-3-pyridyl]acetamide]	100 to 1000 nM
O=C(Cc1ccc(C(F)(F)F)nc1)N(CC1CCOCC1)C[C@@H](O)c1cccnc1 [compound 79, N-[(2S)-2-hydroxy-2-(3-pyridyl)ethyl]-N-(tetrahydropyran-4-ylmethyl)-2-[6-(trifluoromethyl)-3-pyridyl]acetamide]	> 1000 nM
N#Cc1ccc(CC(=O)N(CC2COC2)C[C@@H](O)c2cccnc2)cc1Cl [compound 80, 2-(3-chloro-4-cyano-phenyl)-N-[(2S)-2-hydroxy-2-(3-pyridyl)ethyl]-N-(oxetan-3-ylmethyl)acetamide]	100 to 1000 nM
O=C(Cc1ccc(C(F)(F)F)nc1)N(CC1CCNCC1)C[C@@H](O)c1cccnc1 [compound 81, N-[(2S)-2-hydroxy-2-(3-pyridyl)ethyl]-N-(4-piperidylmethyl)-2-[6-(trifluoromethyl)-3-pyridyl]acetamide]	> 1000 nM
COC(=O)N(CCc1ccc2ccccc2c1)CC(O)c1cccnc1 (stereo not drawn) [compound 82, Methyl N-[2-hydroxy-2-(3-pyridyl)ethyl]-N-[2-(2-naphthyl)ethyl]carba mate]	100 to 1000 nM
COC(=O)N(CCc1ccc(Cl)c(Cl)c1)CC(O)c1cccnc1 (stereo not drawn) [compound 83, Methyl N-[2-(3,4-dichlorophenyl)ethyl] -N-[2-hydroxy-2-(3-pyridyl)ethyl]carbam ate]	100 to 1000 nM
O=C(Cc1ccc(C(F)(F)F)nc1)N(CC(O)c1cnccn1)C1CCC1 (stereo not drawn) [compound 85]	100 to 1000 nM
O=C(Cc1ccc(Cl)c(Cl)c1)N(C[C@@H](O)c1cccnc1)C1CC1 [compound 86, N-cyclopropyl-2-(3,4-dichlorophenyl)-N-[(2S)-2-hydroxy-2-(3-pyridyl)ethyl]acetamide]	100 to 1000 nM
O=C(Cc1ccc(C(F)(F)F)nc1)N(CC1CCC1)CC(O)c1cccnn1 (stereo not drawn) [compound 87]	100 to 1000 nM
Cc1ccncc1C(O)CN(CC1COC1)C(=O)Cc1ccc(C(F)(F)F)nc1 (stereo not drawn) [compound 89, N-[2-hydroxy-2-(4-methyl-3-pyridyl)ethyl] -N-(oxetan-3-ylmethyl)-2-[6-(trifluoromethyl)-3-pyridyl]acetamide]	> 1000 nM
CC(C)c1ccncc1C(O)CN(CC1COC1)C(=O)Cc1ccc(C(F)(F)F)nc1 (stereo not drawn) [compound 90, N-[2-hydroxy-2-(4-isopropyl-3-pyridyl)ethyl]-N-(oxetan-3-ylmethyl)-2-[6-(trifluoromethyl)-3-pyridyl]acetamide]	≤ 100 nM
CCC(=O)N(C[C@@H](O)c1cccnc1)C1Cc2cnc(C(F)(F)F)cc2C1 (stereo partly drawn) [compound 93, N-[(2S)-2-hydroxy-2-(3-pyridyl)ethyl]-N-[3-(trifluoromethyl)-6,7-dihydro-5H-cyclopenta[c]pyridin-6-yl]propanamide]	> 1000 nM
CC(C)N(C[C@@H](O)c1cccnc1)C(=O)Cc1cnc(C(F)(F)F)nc1 [compound 94, N-[(2S)-2-hydroxy-2-(3-pyridyl)ethyl]-N-isopropyl-2-[2-(trifluoromethyl)pyrimidin-5-yl]acetamide]	100 to 1000 nM
CCCN(CC(O)c1cccnc1)C(=O)Cc1ccc(F)c(F)c1 (stereo not drawn) [compound 95, 2-(3,4-difluorophenyl)-N-(2-hydroxy-2-(pyridin-3-yl)ethyl)-N-propylacetamide]	100 to 1000 nM
CCCN(CC(O)c1cnccn1)C(=O)Cc1ccc(Cl)c(Cl)c1 (stereo not drawn) [compound 96]	100 to 1000 nM
CCCN(CC(O)c1cccnn1)C(=O)Cc1ccc(Cl)c(Cl)c1 (stereo not drawn) [compound 97]	≤ 100 nM
CCCN(C[C@@H](O)c1cccnc1)C(=O)C1CCc2cc(Cl)c(Cl)cc2C1 (stereo partly drawn) [compound 98, 6,7-dichloro-N-[(2S)-2-hydroxy-2-(3-pyridyl)ethyl]-N-propyl-tetralin-2-carboxamide]	≤ 100 nM
CCCN(C[C@@H](O)c1cccnc1)C(=O)Cc1ccc(C#N)c(Cl)c1 [compound 100, 2-(3-chloro-4-cyano-phenyl)-N-[(2S)-2-hydroxy-2-(3-pyridyl)ethyl]-N-propyl-acetamide]	≤ 100 nM

More lines, now with the values ahead:

IC50	SMILES
100 to 1000 nM	CCCN(C[C@@H](O)c1cccnc1)C(=O)Cc1ccc(C)c(C)c1 [compound 99, 2-(3,4-dimethylphenyl)-N-[(2S)-2-hydroxy-2-(3-pyridyl)ethyl]-N-propyl-acetamide]
> 1000 nM	CCCN(C[C@@H](O)c1cccnc1)C(=O)c1nc2cc(Cl)c(Cl)cc2[nH]1 [compound 101, 5,6-dichloro-N-[(2S)-2-hydroxy-2-(3-pyridyl)ethyl]-N-propyl-1 H-benzimidazole-2-carboxamide]
> 1000 nM	CCCN(CC(O)c1ccc(OC)nc1)C(=O)Cc1ccc(Cl)c(Cl)c1 (stereo not drawn) [compound 102, 2-(3,4-dichlorophenyl)-N-[2-hydroxy-2-(6-methoxy-3-pyridyl)ethyl]-N-propyl-acetamide]
> 1000 nM	CCCN(CC(O)c1cncc(Br)c1)C(=O)Cc1ccc(Cl)c(Cl)c1 (stereo not drawn) [compound 103, N-[2-(5-bromo-3-pyridyl)-2-hydroxyethyl]-2-(3,4-dichlorophenyl)-N-propyl-acetamide]
> 1000 nM	CCCN(C[C@@H](O)c1cccnc1)C(=O)Cc1cncnc1 [compound 104, N-[(2S)-2-hydroxy-2-(3-pyridyl)ethyl]-N-propyl-2-pyrimidin-5-yl-acetamide]
≤ 100 nM	CCCN(C[C@@H](O)c1cccnc1)C(=O)Cc1ccc(C(F)(F)F)c(F)c1 [compound 105, 2-[3-fluoro-4-(trifluoromethyl)phenyl]-N-[(2S)-2-hydroxy-2-(3-pyridyl)ethyl]-N-propyl-acetamide]
100 to 1000 nM	CCCN(C[C@@H](O)c1cccnc1)C(=O)Cc1ccc(C(F)(F)F)cn1 [compound 106, N-[(2S)-2-hydroxy-2-(3-pyridyl)ethyl]-N-propyl-2-[5-(trifluoromethyl)-2-pyridyl]acetamide]
≤ 100 nM	CCCN(C[C@@H](O)c1cccnc1)C(=O)N1Cc2cc(Cl)c(Cl)cc2C1 [compound 107, 5,6-dichloro-N-[(2S)-2-hydroxy-2-(3-pyridyl)ethyl]-N-propyl-isoindoline-2-carboxamide]
> 1000 nM	CCCN(C[C@@H](O)c1cccnc1)C(=O)Cc1ccc(F)cn1 [compound 108, 2-(5-fluoro-2-pyridyl)-N-[(2S)-2-hydroxy-2-(3-pyridyl)ethyl]-N-propyl-acetamide]
≤ 100 nM	CCCN(CC(O)c1cnccc1OC)C(=O)Cc1ccc(Cl)c(Cl)c1 (stereo not drawn) [compound 109, 2-(3,4-dichlorophenyl)-N-[2-hydroxy-2-(4-methoxy-3-pyridyl)ethyl]-N-propyl-acetamide]
100 to 1000 nM	CCCN(C[C@@H](O)c1cccnc1)C(=O)C1Cc2cc(F)c(F)cc2C1 [compound 110, 5,6-difluoro-N-[(2S)-2-hydroxy-2-(3-pyridyl)ethyl]-N-propyl-indane-2-carboxamide]
> 1000 nM	CCCN(CC(O)c1cncc(C#N)c1)C(=O)Cc1ccc(Cl)c(Cl)c1 (stereo not drawn) [compound 111, N-[2-(5-cyano-3-pyridyl)-2-hydroxyethyl]-2-(3,4-dichlorophenyl)-N-propyl-acetamide]
100 to 1000 nM	CCCN(CC(O)c1cncc(F)c1)C(=O)Cc1ccc(C(F)(F)F)nc1 (stereo not drawn) [compound 112, N-[2-(5-fluoro-3-pyridyl)-2-hydroxyethyl]-N-propyl-2-[6-(trifluoromethyl)-3-pyridyl]acetamide]
> 1000 nM	CCCN(CC(O)c1cnccn1)C(=O)Cc1ccc(C(F)(F)F)nc1 (stereo not drawn) [compound 113]
> 1000 nM	CCCN(CC(O)c1ccc(C(F)(F)F)nc1)C(=O)Cc1ccc(Cl)c(Cl)c1 (stereo not drawn) [compound 114, 2-(3,4-dichlorophenyl)-N-[2-hydroxy-2-[6-(trifluoromethyl)-3-pyridyl]ethyl]-N-propyl-acetamide]
> 1000 nM	CCCN(CC(O)c1ccc(=O)[nH]c1)C(=O)Cc1ccc(Cl)c(Cl)c1 (stereo not drawn) [compound 115, 2-(3,4-dichlorophenyl)-N-[2-hydroxy-2-(6-oxo-1 H-pyridin-3-yl)ethyl]-N-propyl-acetamide]
100 to 1000 nM	CCCN(CC(O)c1cccnn1)C(=O)Cc1ccc(OC(F)(F)F)c(Cl)c1 (stereo not drawn) [compound 116]
> 1000 nM	CCCN(CC(O)c1cccnc1)C(=O)C(C)c1ccc(Cl)c(Cl)c1 (stereo not drawn) [compound 117, 2-(3,4-dichlorophenyl)-N-[2-hydroxy-2-(3-pyridyl)ethyl]-N-propyl-propanamide]
> 1000 nM	CCCN(C[C@@H](O)c1cccnc1)C(=O)Cc1cccc2ncsc12 [compound 118, 2-(1,3-benzothiazol-7-yl)-N-[(2S)-2-hydroxy-2-(3-pyridyl)ethyl]-N-propyl-acetamide]
≤ 100 nM	CCCN(C[C@@H](O)c1cccnc1)C(=O)Cc1ccc(C#N)c(F)c1 [compound 119, 2-(4-cyano-3-fluoro-phenyl)-N-[(2S)-2-hydroxy-2-(3-pyridyl)ethyl]-N-propyl-acetamide]
